We go through six compounds from US11306082B2, “Esters of dihydrotetrabenazine” (Foresee Pharmaceuticals Co., Ltd., priority 2017, dated 2022).

For data set [1], the target named is VMAT2 (Bos taurus, UniProt Q27963). The settings on record: Scherman et al., 1983; cited from earlier work.
Data set [2] in a line: Color stability in organic solvents at 37° C. Type of data set: physicochemical. The settings on record: incubation at 37° C. for 7 days, organic solvents (FIG. 1).
Data set [3] in a line: Aqueous solubility of compounds. The settings on record: for aqueous solubility compared with compound IV: all tested conditions; for solubility: aqueous buffer, thermodynamic from solid, 37° C. Type of data set: physicochemical. The procedure: Compound suspensions (2 mg/m L) in various aqueous solutions, including 10 mM pH 4.0 citrate-saline buffer, 10 mM pH 5.0 citrate-saline buffer, 10 mM pH 5.8 PBS, 10 mM pH 7.4 PBS, 10 mM pH 8.5 borate-saline buffer, pure water and serum, were stirred at 37° C. for 2-3 days. Daily, 0.5 to 1 mL aliquots were taken and centrifuged at 14,000 rpm for 2 min without temperature control. The supernatant was analyzed by HPLC to determine the amount of dissolved compounds.

The nature of data set [4]: Solubility in pharmaceutical acceptable organic solvents. The format is physicochemical. The settings on record: for solubility: organic solvent or mixture, thermodynamic from solid, 37° C. The procedure:
Previously, non-aqueous solvents, such as organic solvents, have long been utilized in injectable pharmaceutical products to dissolve water-insoluble drugs. Here, the solubility of compounds of the present application in various organic solvents were tested. The compound suspensions in various pharmaceutical acceptable organic solvents, including dimethylacetamide (DMAc), Dimethyl sulfoxide (DMSO), triacetin (TA), were stirred at 37° C. at designed time interval. At the designed time point, 0.5 mL aliquots were taken and centrifuged at 14,000 rpm for 2 min without temperature control. The supernatant was diluted with ACN and then analyzed by HPLC to determine the amount of dissolved compounds.

The subject of data set [5] is porcine liver esterase (PLE). The data set can be described thus: Enzymatic ester hydrolysis via porcine liver esterase. Type of data set: in vitro ADME.
Data set [6] concerns the target Vesicular Monoamine Transporter Isoform 2 (VMAT2) (UniProt Q01827). The data set is described as follows: VMAT2 competition binding assay ([3H]dihydrotetrabenazine, whole brain membranes). To be noted: for pIC50: read-out: VMAT2 binding affinity IC50, [3H]Dihydrotetrabenazine 10 nM, 30 min at 25° C.; for pKi: read-out: VMAT2 binding affinity Ki, Cheng-Prusoff from IC50.
Method: IC50 values were determined by a non-linear, least squares regression analysis using MathIQ™ (ID Business Solutions Ltd., UK).

Data set [7] is described as follows: Solubility in pharmaceutical acceptable oils. Type of data set: physicochemical. To be noted: for solubility in pharmaceutical acceptable oils (in words): castor, peanut, soybean oil; for solubility: oil or lipid, thermodynamic from solid, 37° C. The procedure: Conventionally, fatty acids are used to conjugate with a drug to enhance drug's lipophilicity to increase its solubility in oils. The solubility of compounds of the present application in various oils were tested. The suspension of compounds in various pharmaceutical acceptable oils, including castor oil, sesame oil, cottonseed oil, peanut oil and soybean oil, were stirred at 37° C. for 2-3 days. At designed time point, about 200 to 300 μL aliquots were taken and centrifuged at 14,000 rpm for 2 min without temperature control. The supernatant was carefully withdrawn and extracted with 9 folds of ACN. The mixture was then vortexed for 30 sec and subsequently centrifuged at 14,000 rpm for 2 min without temperature control. The supernatant (300 uL) was taken and diluted with 1 fold of isopropanol (IPA) and then analyzed by HPLC to determine the amount of dissolved compounds. The oil without compound after same extraction/dilution step was used as control. […] The higher oil solubility can be advantageously used to make long acting or sustained release formulation to deliver the active compounds.

The target of data set [8] is VMAT2 (Rattus norvegicus, UniProt Q01827). The settings on record: as disclosed in U.S. Pat. No. 8,039,627; read-out: VMAT2 binding affinity, Ki; cited from earlier work.
The conditions of data set [9]: human liver assay, response in application Ser. No. 11/937,445; cited from earlier work.
For data set [10], the target named is VMAT2. The settings on record: see 17 of the Declaration; cited from earlier work.
[11] abbreviates: borate-saline buffer, Borate (10 mM, pH 8.5).
[12] abbreviates: citrate-saline buffer, Citrate buffer (10 mM, pH 5.0).

Structures are written as SMILES. pIC50, pKi: −log10 of the molar value. Converted amounts (≈) assume the structure as drawn. Some results are limits rather than exact numbers.

Sequence of VMAT2 (Bos taurus, UniProt Q27963) (Q27963 whole entry): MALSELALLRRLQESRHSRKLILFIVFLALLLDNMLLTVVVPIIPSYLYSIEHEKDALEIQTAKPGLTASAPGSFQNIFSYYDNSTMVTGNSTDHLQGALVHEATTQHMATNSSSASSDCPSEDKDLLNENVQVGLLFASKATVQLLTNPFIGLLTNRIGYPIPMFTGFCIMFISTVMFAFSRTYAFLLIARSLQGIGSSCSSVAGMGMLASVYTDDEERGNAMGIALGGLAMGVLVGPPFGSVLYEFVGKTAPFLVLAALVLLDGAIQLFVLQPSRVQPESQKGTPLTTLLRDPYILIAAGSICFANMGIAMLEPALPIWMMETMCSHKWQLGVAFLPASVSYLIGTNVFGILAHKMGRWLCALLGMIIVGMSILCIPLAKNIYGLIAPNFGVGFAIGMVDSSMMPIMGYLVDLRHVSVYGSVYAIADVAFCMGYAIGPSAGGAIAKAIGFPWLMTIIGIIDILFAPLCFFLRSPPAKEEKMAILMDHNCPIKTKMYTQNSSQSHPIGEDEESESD
Sequence of VMAT2 (Rattus norvegicus, UniProt Q01827) (Q01827 whole entry): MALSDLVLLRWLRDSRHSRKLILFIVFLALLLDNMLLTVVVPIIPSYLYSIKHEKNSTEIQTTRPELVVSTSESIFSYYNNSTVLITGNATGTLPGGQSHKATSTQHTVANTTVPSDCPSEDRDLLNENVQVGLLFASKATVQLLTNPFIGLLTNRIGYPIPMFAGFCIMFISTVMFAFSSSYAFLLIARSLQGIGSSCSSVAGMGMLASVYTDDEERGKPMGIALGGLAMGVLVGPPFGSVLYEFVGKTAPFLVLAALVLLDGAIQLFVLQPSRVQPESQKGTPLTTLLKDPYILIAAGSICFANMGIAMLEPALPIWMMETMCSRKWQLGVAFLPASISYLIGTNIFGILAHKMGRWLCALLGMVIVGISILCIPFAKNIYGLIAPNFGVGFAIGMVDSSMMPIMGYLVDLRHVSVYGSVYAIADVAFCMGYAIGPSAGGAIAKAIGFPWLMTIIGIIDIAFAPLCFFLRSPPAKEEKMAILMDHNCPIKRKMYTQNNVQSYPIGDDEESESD

For the compound `COc1cc2c(cc1OC)C1CC(=O)C(CC(C)C)CN1CC2` (racemic) [TBZ, 3-isobutyl-9,10,dimethoxy-1,3,4,6,7,11b-hexahydro-2H-pyrido[2,1-a]isoquinolin-2-one], on VMAT2 [1], the pIC50 was 8.49.
In the case of `CCCCCCCCCCCCCCCC(=O)O[C@@H]1C[C@@H]2c3cc(OC)c(OC)cc3CCN2C[C@H]1CC(C)C` [Compd 1-1, (2R,3R, 11bR)-3-isobutyl-9,10-dimethoxy-1,3,4,6,7,11b-hexahydro-2H-pyrido[2,1-a]isoquinolin-2-yl palmitate], the “color change in organic solvents” value in data set [2] was “no or minimal color change”. Further, the “aqueous solubility compared with compound IV” value in [3] is on record as “significantly lower aqueous solubility”. For the same compound, the solubility in [3] (PBS (10 mM, pH 5.8)) is below 1 µg/mL; in data set [3] (PBS (10 mM, pH 7.4)), 1 µg/mL (≈ 0.00179 mM); in data set [3] (setting [11]), 32.6 µg/mL (≈ 0.0584 mM); in [3] (setting [12]), below 1 µg/mL; in data set [4] (DMAc), 513000 µg/mL (≈ 919 mM); in data set [4] (DMSO) it was 7800 µg/mL (≈ 14 mM). Further, the solubility in data set [4] (Triacetin) is 29900 µg/mL (≈ 53.6 mM); in [7] (Castor oil) it was 370000 µg/mL (≈ 663 mM); in data set [7] (Peanut oil), 266000 µg/mL (≈ 478 mM); in [7] (Soybean oil) it was 277000 µg/mL (≈ 496 mM). The “solubility in organic solvents (in words)” value in data set [4] (all tested solvent (DMSO, DMAc, triacetin)) was “good solubility”. For the same compound, in data set [5] (PLE/compound ratio of 5 or above), the “hydrolysis to release (+)-α-DHTBZ (in words)” value is “can be hydrolyzed”. Besides, the “(+)-α-DHTBZ released by ester hydrolysis” value in data set [5] (PLE:compound 1-1 1:1, incubation 80 min, 37° C.) is “BQL”. The pIC50 in data set [6] was below 5.00. Besides, the pKi in [6] is below 5.00. Also, the “solubility in pharmaceutical acceptable oils (in words)” value in [7] is on record as “fair to good solubility”.
On to `CCCCCCCCCCCCCCCCCCCCCC(=O)O[C@@H]1C[C@@H]2c3cc(OC)c(OC)cc3CCN2C[C@H]1CC(C)C` [Compd 1-2, (2R,3R, 11bR)-3-isobutyl-9,10-dimethoxy-1,3,4,6,7,11b-hexahydro-2H-pyrido[2,1 a]isoquinolin-2-yl behenate], for which the “color change in organic solvents” value in data set [2] was “no or minimal color change”. Besides, the “aqueous solubility compared with compound IV” value in data set [3] is “significantly lower aqueous solubility”. Moreover, the solubility was below 1 µg/mL in [3] (PBS (10 mM, pH 5.8)); below 1 µg/mL in [3] (PBS (10 mM, pH 7.4)); 1.7 µg/mL (≈ 0.00265 mM) in [3] (setting [11]); below 1 µg/mL in [3] (setting [12]); 8810 µg/mL (≈ 13.7 mM) in data set [4] (DMAc); 150 µg/mL (≈ 0.234 mM) in data set [4] (DMSO). Besides, the figures for the solubility in data set [7] (Castor oil), in data set [7] (Peanut oil) and in data set [7] (Soybean oil) were 31400 µg/mL (≈ 48.9 mM), 70200 µg/mL (≈ 109 mM) and 96400 µg/mL (≈ 150 mM), respectively. For the same compound, the pIC50 in data set [6] is below 5.00. In data set [6], the pKi is below 5.00. The “solubility in pharmaceutical acceptable oils (in words)” value in [7] is “fair to good solubility”.
Regarding `COc1cc2c(cc1OC)[C@H]1C[C@@H](O)[C@H](CC(C)C)CN1CC2` [Compd IV, (2R, 3R, 11bR)-3-isobutyl-9,10-dimethoxy-1,3,4,6,7,11b-hexahydro-2H-pyrido[2,1-a]isoquinolin-2-ol, reference compound], the “color change in organic solvents” value in data set [2] is listed as “significant color change”. Further, the solubility was 1380 µg/mL (≈ 4.32 mM) in data set [3] (PBS (10 mM, pH 5.8)); 244 µg/mL (≈ 0.763 mM) in [3] (PBS (10 mM, pH 7.4)); 140 µg/mL (≈ 0.439 mM) in data set [3] (setting [11]); above 2000 µg/mL in [3] (setting [12]); 555000 µg/mL (≈ 1740 mM) in data set [4] (DMAc); 410000 µg/mL (≈ 1280 mM) in [4] (DMSO). For the same compound, the solubility stood at 26100 µg/mL (≈ 81.7 mM) in data set [4] (Triacetin), 30000 µg/mL (≈ 93.9 mM) in data set [7] (Castor oil), 10100 µg/mL (≈ 31.6 mM) in data set [7] (Peanut oil) and 8000 µg/mL (≈ 25 mM) in data set [7] (Soybean oil). Moreover, the “solubility in pharmaceutical acceptable oils (in words)” value in data set [7] was “fair to good solubility”.
As to `COc1cc2c(cc1OC)[C@H]1C[C@@H](OC(=O)[C@@H](N)C(C)C)[C@H](CC(C)C)CN1CC2` [VBZ, (S)-2-amino-3-methyl-butyric acid (2R, 3R, 11bR)-3-isobutyl-9,10-dimethoxy-1,3,4,6,7,11b-hexahydro-2H-pyrido[2,1-a]isoquinolin-2-yl], on VMAT2 [8], the pKi is 6.73. Further, the “conversion to (+)-α-DHTBZ” value in data set [9] is on record as “can release the active (+)-α-DHTBZ”.
`COc1cc2c(cc1OC)C1CC(OC(C)=O)C(CC(C)C)CN1CC2` (stereo not shown) [acetate ester of Kilbourn]: on VMAT2 [10], the pKi was 7.80. Also, the “conversion to (+)-α-DHTBZ” value in [9] is “no conversion”.

As a reminder, the pIC50 is the IC50 on a negative log10 scale, so that one unit is a factor of ten. What is called solubility is how much of the substance goes into solution per volume. Broadly, the pKi is the Ki on a negative log10 scale, so that one unit is a factor of ten.
